Results reported in patent US20240317721A1, “PYRAZOLYL DERIVATIVES AS INHIBITORS OF THE KRAS MUTANT PROTEIN” (NOVARTIS AG, priority 2021, published 2024).

Molecular target: KRasG12C (M1-K169, biotinylated on the N-terminus) (Homo sapiens (Human), UniProt P01116, G12C)
Test: Covalent competition assay: scintillation proximity assay (SPA) quantifying covalent modification of KRASG12C
Assay type: binding
Conditions: competition with radiolabeled covalent probe (Compound B/Compound A), 2 hours incubation, 10 nM KRasG12C
Description: Cells were harvested by centrifugation and frozen at −80° C. until further processing. […] The cells were lysed by 4 passages through an Avestin Emulsiflex at about 20000 psi and insoluble debris removed by centrifugation and filtered through a 0.45 µm Durapore membrane (Millipore). […] Eluted protein fractions were analyzed by Novex NuPage 4-12% PAGE. […] The protein in the flow through was subjected to a final polishing step on a HiLoad 16/60 Superdex 200 prep grade size-exclusion column pre-equilibrated with SEC-buffer (20 mM HEPES pH 7.4, 150 mM NaCl, 5 mM MgCl2, 1 µM GDP). Positive fractions were determined by PAGE (Novex NuPage 4-12% BisTris) analysis.
A scintillation proximity assay (SPA) was used to determine the potency of the compounds.
This assay measures the ability of the test compound to compete with the radiolabeled covalent probe for binding to and covalently modify KRASG12C.
(see above for synthesis of Compound A and Compound B). A serial dilution of the compounds to be tested is mixed with a fixed concentration of the radiolabeled covalent probe before incubation with KRASG12C:GDP as described below. KRASG12C can either be bound by the radiolabeled covalent probe (Compound B), resulting in light being emitted from the beads, or bound by covalent test compound preventing signal generation.
A 1/20 isotopic dilution of labeled (Compound B) and non-labeled covalent (Compound A) probe was prepared and added to all wells on the plate. The reaction was started by addition of KRasG12C (M1-K169, biotinylated on the N-terminus) to the compounds and incubated for 2 hours with continuous agitation allowing for full modification of KRasG12C with probe or test compounds. Final concentrations in an assay volume of 40 μL were 10 nM KRasG12C, 25 nM radio-ligand and 475 nM unlabelled ligand. The assay buffer contained 20 mM Tris-HCl pH 7.5 (Invitrogen), 150 mM NaCl (Sigma Aldrich), 0.1 mM MgCl2 (Sigma Aldrich), and 0.01% Tween-20 (Sigma Aldrich). Following addition of 50 μL of a 400 μg/mL suspension of streptavidin-coated YSi beads (Perkin Elmer), plates were incubated for a further 30 min with continuous agitation before reading the plates on a scintillation counter (Topcount NXT 384 (Packard).
Evaluation was carried out using assay data analysis software (such as the standard Novartis in-house Helios software application, Novartis Institutes for BioMedical Research, unpublished) using the methods described in Formenko et al., Robust Regression for high-throughput screening, Computer Methods and Programs in Biomedicine, 2006, 82, 31-37. Following normalization of activity values for the wells to % inhibition (% inhibition=[(high control−sample)/(high control−low control)]×100), IC50 fitting was carried out from the duplicate determinations present on each plate according to Formenko et al., 2006.
Evaluation can also be carried out using commercially available software which is designed to derive IC50 values using 4-parameter fits (e.g. GraphPad Prism, XL fit).

| Structure (SMILES) | IC50 |
| --- | --- |
| C=CC(=O)N1CC2(CC(n3nc(N4CCN(C(C)=O)CC4(C)C)c(-c4c(C)c(C)cc5[nH]ncc45)c3C)C2)C1 (single isomer, unassigned) [Example 1a, 1-(6-(3-(4-Acetyl-2,2-dimethylpiperazin-1-yl)-4-(5,6-dimethyl-1H-indazol-4-yl)-5-methyl-1H-pyrazol-1-yl)-2-azaspiro[3.3]heptan-2-yl)prop-2-en-1-one] | 86 nM |
| C=CC(=O)N1CC2(CC(n3nc(N4CCn5nccc5C4)c(-c4c(Cl)c(C)cc5[nH]ncc45)c3C)C2)C1 (single isomer, unassigned) [Example 10b, 1-(6-(4-(5-Chloro-6-methyl-1H-indazol-4-yl)-3-(6,7-dihydropyrazolo[1,5-a]pyrazin-5(4H)-yl)-5-methyl-1H-pyrazol-1-yl)-2-azaspiro[3.3]heptan-2-yl)prop-2-en-1-one] | 105 nM |
| C=CC(=O)N1CC2(CC(n3nc(N4CCc5c(cnn5C)C4)c(-c4c(Cl)c(C)cc5[nH]ncc45)c3C)C2)C1 (single isomer, unassigned) [Example 11a, 1-(6-(4-(5-chloro-6-methyl-1H-indazol-4-yl)-5-methyl-3-(1-methyl-1,4,6,7-tetrahydro-5H-pyrazolo[4,3-c]pyridin-5-yl)-1H-pyrazol-1-yl)-2-azaspiro[3.3]heptan-2-yl)prop-2-en-1-one] | > 50000 nM |
| C=CC(=O)N1CC2(CC(n3nc(N4[C@H](C)CN(C(C)=O)C[C@@H]4C)c(-c4c(Cl)c(C)cc5[nH]ncc45)c3C)C2)C1 (single isomer, unassigned) [Example 13a] | > 50000 nM |
| C=CC(=O)N1CC2(CC(n3nc(N4[C@H](C)CN(C(C)=O)C[C@@H]4C)c(-c4c(Cl)c(C)cc5[nH]ncc45)c3C)C2)C1 (single isomer, unassigned) [Example 13b] | 2100 nM |
| C=CC(=O)N1CC2(CC(n3nc(N4CCc5cnn(C)c5C4)c(-c4c(Cl)c(C)cc5[nH]ncc45)c3C)C2)C1 (single isomer, unassigned) [Example 14a, 1-(6-(4-(5-chloro-6-methyl-1H-indazol-4-yl)-5-methyl-3-(1-methyl-1,4,5,7-tetrahydro-6H-pyrazolo[3,4-c]pyridin-6-yl)-1H-pyrazol-1-yl)-2-azaspiro[3.3]heptan-2-yl)prop-2-en-1-one] | > 50000 nM |
| C=CC(=O)N1CC2(CC(n3nc(N4CCc5cnn(C)c5C4)c(-c4c(Cl)c(C)cc5[nH]ncc45)c3C)C2)C1 (single isomer, unassigned) [Example 14b, 1-(6-(4-(5-chloro-6-methyl-1H-indazol-4-yl)-5-methyl-3-(1-methyl-1,4,5,7-tetrahydro-6H-pyrazolo[3,4-c]pyridin-6-yl)-1H-pyrazol-1-yl)-2-azaspiro[3.3]heptan-2-yl)prop-2-en-1-one] | 364 nM |
| C=CC(=O)N1CC2(CC(n3nc(N4CCc5ncncc5C4)c(-c4c(Cl)c(C)cc5[nH]ncc45)c3C)C2)C1 (single isomer, unassigned) [Example 15a, 1-(6-(4-(5-chloro-6-methyl-1H-indazol-4-yl)-3-(7,8-dihydropyrido[4,3-d]pyrimidin-6(5H)-yl)-5-methyl-1H-pyrazol-1-yl)-2-azaspiro[3.3]heptan-2-yl)prop-2-en-1-one] | 18000 nM |
| C=CC(=O)N1CC2(CC(n3nc(N4CCN(C(C)=O)CC4(C)C)c(-c4c(Cl)c(C)cc5[nH]ncc45)c3C)C2)C1 (single isomer, unassigned) [Example 18a, 1-(6-(3-(4-acetyl-2,2-dimethylpiperazin-1-yl)-4-(5-chloro-6-methyl-1H-indazol-4-yl)-5-methyl-1H-pyrazol-1-yl)-2-azaspiro[3.3]heptan-2-yl)prop-2-en-1-one] | 6100 nM |
| C=CC(=O)N1CC2(CC(n3nc(N4CCN(C(C)=O)CC4(C)C)c(-c4c(Cl)c(C)cc5[nH]ncc45)c3C)C2)C1 (single isomer, unassigned) [Example 18b, 1-(6-(3-(4-acetyl-2,2-dimethylpiperazin-1-yl)-4-(5-chloro-6-methyl-1H-indazol-4-yl)-5-methyl-1H-pyrazol-1-yl)-2-azaspiro[3.3]heptan-2-yl)prop-2-en-1-one] | 31 nM |

Further lines, results first:

| IC50 | Structure (SMILES) |
| --- | --- |
| 10700 nM | C=CC(=O)N1CC2(CC(n3nc(N4CCN(C(C)=O)CC4(C)C)c(-c4c(C)c(C)cc5[nH]ncc45)c3C)C2)C1 (single isomer, unassigned) [Example 1b, 1-(6-(3-(4-Acetyl-2,2-dimethylpiperazin-1-yl)-4-(5,6-dimethyl-1H-indazol-4-yl)-5-methyl-1H-pyrazol-1-yl)-2-azaspiro[3.3]heptan-2-yl)prop-2-en-1-one] |
| > 50000 nM | C=CC(=O)N1CC2(CC(n3nc(N4CCN(C(C)=O)CC4)c(-c4c(C)c(C)cc5[nH]ncc45)c3C)C2)C1 (single isomer, unassigned) [Example 2a, 1-(6-(3-(4-acetylpiperazin-1-yl)-4-(5,6-dimethyl-1H-indazol-4-yl)-5-methyl-1H-pyrazol-1-yl)-2-azaspiro[3.3]heptan-2-yl)prop-2-en-1-one] |
| 3200 nM | C=CC(=O)N1CC2(CC(n3nc(N4CCN(C(C)=O)CC4)c(-c4c(C)c(C)cc5[nH]ncc45)c3C)C2)C1 (single isomer, unassigned) [Example 2b, 1-(6-(3-(4-acetylpiperazin-1-yl)-4-(5,6-dimethyl-1H-indazol-4-yl)-5-methyl-1H-pyrazol-1-yl)-2-azaspiro[3.3]heptan-2-yl)prop-2-en-1-one] |
| 50000 nM | C=CC(=O)N1CC2(CC(n3nc(N4CCn5nccc5C4)c(-c4c(Cl)c(C)cc5[nH]ncc45)c3C)C2)C1 (single isomer, unassigned) [Example 10a, 1-(6-(4-(5-Chloro-6-methyl-1H-indazol-4-yl)-3-(6,7-dihydropyrazolo[1,5-a]pyrazin-5(4H)-yl)-5-methyl-1H-pyrazol-1-yl)-2-azaspiro[3.3]heptan-2-yl)prop-2-en-1-one] |
| 120 nM | C=CC(=O)N1CC2(CC(n3nc(N4CCc5c(cnn5C)C4)c(-c4c(Cl)c(C)cc5[nH]ncc45)c3C)C2)C1 (single isomer, unassigned) [Example 11b, 1-(6-(4-(5-chloro-6-methyl-1H-indazol-4-yl)-5-methyl-3-(1-methyl-1,4,6,7-tetrahydro-5H-pyrazolo[4,3-c]pyridin-5-yl)-1H-pyrazol-1-yl)-2-azaspiro[3.3]heptan-2-yl)prop-2-en-1-one] |
| 305 nM | C=CC(=O)N1CC2(CC(n3nc(N4CCc5ncncc5C4)c(-c4c(Cl)c(C)cc5[nH]ncc45)c3C)C2)C1 (single isomer, unassigned) [Example 15b, 1-(6-(4-(5-chloro-6-methyl-1H-indazol-4-yl)-3-(7,8-dihydropyrido[4,3-d]pyrimidin-6(5H)-yl)-5-methyl-1H-pyrazol-1-yl)-2-azaspiro[3.3]heptan-2-yl)prop-2-en-1-one] |
| 894 nM | C=CC(=O)N1CC2(CC(n3nc(N4CCn5ccnc5C4)c(-c4c(Cl)c(C)cc5[nH]ncc45)c3C)C2)C1 (single isomer, unassigned) [Example 19a, 1-(6-(4-(5-chloro-6-methyl-1H-indazol-4-yl)-3-(5,6-dihydroimidazo[1,2-a]pyrazin-7(8H)-yl)-5-methyl-1H-pyrazol-1-yl)-2-azaspiro[3.3]heptan-2-yl)prop-2-en-1-one] |
| 34700 nM | C=CC(=O)N1CC2(CC(n3nc(N4CCn5ccnc5C4)c(-c4c(Cl)c(C)cc5[nH]ncc45)c3C)C2)C1 (single isomer, unassigned) [Example 19b, 1-(6-(4-(5-chloro-6-methyl-1H-indazol-4-yl)-3-(5,6-dihydroimidazo[1,2-a]pyrazin-7(8H)-yl)-5-methyl-1H-pyrazol-1-yl)-2-azaspiro[3.3]heptan-2-yl)prop-2-en-1-one] |
| 301 nM | C=CC(=O)N1CC2(CC(n3nc(N4CCN(C(C)=O)C5(CCC5)C4)c(-c4c(Cl)c(C)cc5[nH]ncc45)c3C)C2)C1 (single isomer, unassigned) [Example 20a, 1-(6-(3-(5-acetyl-5,8-diazaspiro[3.5]nonan-8-yl)-4-(5-chloro-6-methyl-1H-indazol-4-yl)-5-methyl-1H-pyrazol-1-yl)-2-azaspiro[3.3]heptan-2-yl)prop-2-en-1-one] |
